Data taken from US5654296A, “Condensed heterocyclic compounds, their production and use” (priority 1994, dated 1997).
Counter-ions that a name gives are not always drawn.

Legend:
[1] = molecular target: T1, GnRH receptors (bovine pituitary anterior lobe membrane fraction) (Bos taurus, UniProt P32236); test: 125I-leuprolerin GnRH receptor binding inhibition test, bovine pituitary anterior lobe membrane fraction; settings: 4° C., 90 minutes, read-out: Binding inhibitory activity (IC50 μM) Bovine
T1 construct: A bovine pituitary anterior lobe membrane fraction containing GnRH receptors was prepared; from tissue; host or cells: bovine pituitary anterior lobe, membrane fraction
T1 sequence (P32236 1-328): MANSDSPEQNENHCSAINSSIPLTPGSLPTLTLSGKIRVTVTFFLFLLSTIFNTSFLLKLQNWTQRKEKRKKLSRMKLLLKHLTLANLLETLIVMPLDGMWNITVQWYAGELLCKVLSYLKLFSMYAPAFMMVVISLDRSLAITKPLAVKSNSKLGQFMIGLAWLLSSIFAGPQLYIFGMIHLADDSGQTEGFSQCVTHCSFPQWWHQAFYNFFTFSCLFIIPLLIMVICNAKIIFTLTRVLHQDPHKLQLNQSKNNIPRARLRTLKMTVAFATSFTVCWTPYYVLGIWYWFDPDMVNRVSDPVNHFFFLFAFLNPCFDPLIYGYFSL
Protocol: Ten (10) μl of 3×10^4 M aqueous leuprolerin solution and 10 μl of 0.01 mg/ml lactoperoxidase were taken in a tube and 10 μl of Na^125 I solution (37 MBq) was added. After stirring, 10 μl of 0.001% H2 O2 was added and the reaction was conducted at room temperature for 20 minutes. Then, 700 μl of 0.05% TFA solution was added to the tube to terminate the reaction and the reaction mixture was purified by reverse-phase HPLC. The HPLC conditions are shown below. ^125 I-leuprolerin was eluted after a retention time of 26-27 minutes. (C) Preparation of a Bovine Pituitary Anterior Lobe Membrane Fraction Containing GnRH Receptors A bovine pituitary anterior lobe membrane fraction containing GnRH receptors was prepared by the same procedure as described under (B). However, a 10,000×G centrifugation supernatant was recentrifuged at 100,000×G for 1 hour to provide the membrane fraction pellet. […] For the rat and human membrane fractions prepared in (B) and (D), each membrane fraction was diluted with assay buffer to a concentration of 200 μg/ml and distributed in 188 μl portions into tubes. As to the bovine membrane fraction prepared in (C), the membrane fraction was diluted with assay buffer to 750 μg/ml and distributed in 188 μl portions into tubes. […] Where the rat or bovine pituitary anterior lobe membrane fraction was used, the reaction was conducted at 4° C. for 90 minutes. Where the membrane fraction of the CHO with human GnRH receptors expressed was used, the reaction was carried out at 25° C. for 60 minutes. […] After filtration, the radioactivity of ^125 I-leuprolerin remaining on the filter was measured with a γ-counter. The expression (TB-SB)/(TB-NSB)×100 (where SB=radioactivity with the compound added, TB=maximum bound radioactivity, NSB=nonspecifically bound radioactivity) was calculated to find the binding inhibition rate of each test compound.

[2] = system: 45Ca2+ uptake (veratrine-stimulated, rat cerebral cortex crude synaptosome fraction); test: 45Ca2+ uptake inhibition experiment; assay type: biochemical; settings: 30 μM veratrine, 37° C., 10 minutes, read-out: 45Ca2+ uptake inhibitory activity (IC50 μM)
In short: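 Rat cerebral cortex crude synaptosomes preincubated with test drug 10 min at 37° C, then stimulated with 30 μM veratrine plus 45Ca2+ for 10 min at 37° C; quenched with EGTA, filtered, radioactivity counted by liquid scintillation. Inhibition rate derived from uptake with/without drug and with/without veratrine.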

SMILES | IC50 [1] | IC50 [2]
COc1cc2c(cc1OC)CC1(CCCCN1CCCCC1(c3ccccc3)COCc3ccccc31)CC2 (centres unmarked) [Example I-52, 3,4-Dihydro-6,7-dimethoxy-1'-[4-(4-phenylisochroman-4-yl)butyl]spiro[naphthalene-2(1H),2'-piperidine] hydrochloride] | 5 µM | 
c1ccc(CCNCCCC2(c3ccccc3)COCc3ccccc32)cc1 (stereo not drawn) [Example I-24, 4-[3-(β-Phenethylamino)propyl]-4-phenylisochroman hydrochloride] | 7 µM | 1.77 µM
COc1ccc2c(c1)CCC1(CCCCN1CCCC1(c3ccccc3)COCc3ccccc31)C2 (centres unmarked) [Example I-36, 3,4-Dihydro-6-methoxy-1'-[3-(4-phenylisochroman-4-yl)propyl]spiro[naphthalene-2(1H),2'-piperidine] hydrochloride] | 11 µM | 0.76 µM
c1ccc(C2(CCCN3CCCCC34CCc3ccccc3C4)COCc3ccccc32)cc1 (centres unmarked) [Example I-35, 3,4-Dihydro-1'-[3-(4-phenylisochroman-4-yl)propyl]spiro[naphthalene-2(1H),2'-piperidine] hydrochloride] | 6 µM | 0.14 µM
COC(=O)c1cccc(CNCCCC2(c3ccccc3)COCc3ccccc32)c1 (stereo not drawn) [Example I-45, Methyl α-[3-(4-Phenylisochroman-4-yl)propylamino]-m-toluate hydrochloride] | 5 µM | 
